Results reported in patent USRE43879E1, “Use of the dextrogyral enantiomer of milnacipran for the preparation of a drug” (priority 2003, dated 2012).
Read-outs that look alike come from different tables or passages of the source.

What was measured:
3H-serotonin uptake = target: T1, 3H-serotonin uptake (Rattus norvegicus, UniProt P31652); assay: Serotonin uptake, rat hypothalamus P2 fraction (synaptosomes); assay type: biochemical
T1 construct: the hypothalamus was removed, weighed and homogenised on a Dounce; from tissue
T1 sequence (P31652 whole entry): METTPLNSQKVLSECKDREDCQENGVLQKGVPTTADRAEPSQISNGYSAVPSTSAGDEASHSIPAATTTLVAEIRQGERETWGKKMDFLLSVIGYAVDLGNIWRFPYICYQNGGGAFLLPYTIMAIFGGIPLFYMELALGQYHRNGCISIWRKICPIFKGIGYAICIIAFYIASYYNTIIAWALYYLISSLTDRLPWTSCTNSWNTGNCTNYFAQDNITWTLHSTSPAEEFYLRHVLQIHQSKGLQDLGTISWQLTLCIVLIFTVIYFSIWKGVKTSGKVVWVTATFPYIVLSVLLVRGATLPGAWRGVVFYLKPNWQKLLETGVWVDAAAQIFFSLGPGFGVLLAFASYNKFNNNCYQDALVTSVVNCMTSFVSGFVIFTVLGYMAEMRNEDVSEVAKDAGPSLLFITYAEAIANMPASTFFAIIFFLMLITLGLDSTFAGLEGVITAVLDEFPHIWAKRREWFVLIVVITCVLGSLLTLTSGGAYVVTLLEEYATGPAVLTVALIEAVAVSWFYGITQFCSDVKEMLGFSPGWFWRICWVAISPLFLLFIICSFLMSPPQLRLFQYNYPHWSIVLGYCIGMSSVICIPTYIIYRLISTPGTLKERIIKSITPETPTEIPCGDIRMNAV
Protocol: After homogenisation of brain tissue in a sucrose solution, the presynaptic terminals break away from the axon and close to form synaptosomes obtained by subcellular fractionation.
Male Sprague-Dawley (Janvier) rats weighing 180-200 g were used.
This homogenate was centrifuged for 10 min at 1,000 g (2,400 rpm-Hettich, Rotenta). […] The residue (called the P2 fraction) was recovered in sucrose at a concentration of 50 mg/ml.
Exactly 5 min after the start of incubation, the reaction was stopped by vacuum filtration on Whatman GF/F filters (predilution with 2.5 ml of chilled buffer then rinsing with 3 times 2.5 ml).
The IC50 were determined by transposing the percentages of inhibition onto a graph in relation to the log of the product concentration (6 concentrations in duplicate).

3H-norepinephrine uptake [1] = target: T2, 3H-norepinephrine uptake (Rattus norvegicus, UniProt Q63380); assay: biochemical
T2 sequence (Q63380 1-617): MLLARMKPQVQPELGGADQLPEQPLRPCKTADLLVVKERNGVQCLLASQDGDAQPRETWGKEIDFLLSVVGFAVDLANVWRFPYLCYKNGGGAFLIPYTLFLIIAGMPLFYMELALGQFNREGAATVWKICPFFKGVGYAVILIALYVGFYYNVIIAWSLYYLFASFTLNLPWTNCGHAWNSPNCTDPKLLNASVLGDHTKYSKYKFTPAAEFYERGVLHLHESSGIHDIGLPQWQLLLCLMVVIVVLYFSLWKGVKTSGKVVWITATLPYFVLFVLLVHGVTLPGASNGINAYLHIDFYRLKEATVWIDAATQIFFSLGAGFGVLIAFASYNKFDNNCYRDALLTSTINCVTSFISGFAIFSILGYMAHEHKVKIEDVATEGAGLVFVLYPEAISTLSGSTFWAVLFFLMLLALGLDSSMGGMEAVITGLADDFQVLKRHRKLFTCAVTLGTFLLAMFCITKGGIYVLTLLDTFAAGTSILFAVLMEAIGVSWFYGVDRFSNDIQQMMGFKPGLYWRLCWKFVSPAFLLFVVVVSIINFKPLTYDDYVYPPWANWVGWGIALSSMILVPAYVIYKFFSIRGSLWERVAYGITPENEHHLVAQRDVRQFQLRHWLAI
Protocol: (§1) Norepinephrine Uptake by a Homogenate (P2) of Rat Hypothalamus.
(§2) Male Sprague-Dawley rats, from 200 to 300 g, were stunned and decapitated, and the hypothalami were rapidly removed. Two hypothalami are homogenised in 4 ml of sucrose 0.32 M on a Potter S by 16 complete passes back and forth at 800 rpm, then centrifuged for 10 min at 1,000 g to eliminate cell debris. The supernate is centrifuged for 20 min at 10,000 g and the P2 thus obtained is recovered in 4 ml of sucrose 0.32 M, and homogenised on a Dounce.
(§3) ^3H-(1)-NE: 13 Ci/mmol (Amersham) is used.
(§4) Uptake takes place in a phosphate buffer (containing 8 g of NaCl, 1.21 g of K2HPO4 and 0.34 g of KH2PO4 per liter) pre-oxygenated 30 min before use with a mixture of O2/CO2 (95%/5%).
(§5) In 5-ml plastic tubes placed in a water bath at 37° C., the following are introduced: • 100 μl of buffer or inhibitor, • 700 μl of buffer (containing 25 μM pargyline), • 100 μl of P2.
(§6) After temperature balance, the reaction begins by the addition of 100 μl of ^3H-NE, 50 nM final concentration.
(§7) Exactly 10 min later, the reaction is stopped by adding 2.5 ml of chilled buffer and filtering through GF/F filters. The tube is then rinsed once and the filter once with 2.5 ml of chilled buffer. The filter is then introduced into a Beckman mini-vial and, after adding 3 ml of Instagel (Packard) liquid scintillator, radioactivity is measured with a Tricarb Packard scintillation counter.
(§8) Non-specific uptake (NS) is measured as the presence of DMI 10^−5 M.
(§9) The percentage of inhibition is calculated using the formula:
(§10) The IC50 is determined graphically on the mean curve of percentage of inhibition (4 assays) in relation to the log of the concentration of inhibitor.

primary rat hepatocytes = assay: Safe-Hit genomic test of predictive toxicology (Toxicity Index) on primary rat hepatocytes; assay type: cell-based; settings: 16 h
Text: After treatment of the primary rat hepatocytes in culture, the RNA was extracted in order to generate labelled complementary-DNA probes which were then hybridised on a membrane containing 682 alternatively-spliced fragments specific to cell stress. A Toxicity Index was obtained for each of the products by comparing the hybridisation profile of the treated cells with that of the untreated cells.
Safe-Hit allows molecules within a chemical series to be ranked according to a Toxic Index, determined after the following basic steps (systematically performed in duplicate for each product): • treatment of the cells lines with the various products at three different concentrations, deduced from a preliminary cytotoxicology test (MTT-assay): a reference concentration corresponding to 80% cell viability, a concentration 10-fold higher—when possible—and a concentration 10-fold lower, • preparation of total RNA and of the corresponding radio-labelled cDNA probes, • hybridisation of the cDNA probes: the Safe-Hit macroarray contains 682 independent clones, corresponding to alterations in gene splicing induced by overexpression of WTp53 (p53 is the most ubiquitous “mediator” of cell stress, chosen for the development of this methodology), • acquisition and determination of the Toxicity Index. 4.1.2. Cells
The cells used in the study (preliminary MTT-assay of cytotoxicity and the main test) are cryopreserved hepatocytes from Sprague-Dawley rats in primary culture (batches Hep184005 and Hep184006-Biopredic), cultured under standard conditions.
The cells are seeded and cultured for 16 hours with each product, at the three concentrations chosen on the basis of the preliminary MTT-assay; two controls (untreated cells in solvent alone) are added to the series.
The results of the two Safe-Hit analyses are then compared and combined to assess the potential toxicity of the various compounds tested. Two parameters that can be modified by the user are involved in the calculation of the Toxicity Index: • Background Threshold (BT) smoothes out weak signals, close to background noise and not attributable to significant gene expression. […] The value of this parameter is usually 2 or less than 2 in order to obtain relevant results. […]
Toxicity Indices (TI) were determined as described above. […] Two separate analyses were performed using two levels of differentiation (Induction Factor-IF) in relation to the untreated controls: • a factor of at least 1.7 in relation to the untreated controls. This factor of 1.7 times represents the weakest value that allows an index not to be obtained in relation to the two untreated controls. • a factor of at least 2 in relation to the untreated controls. This factor of 2 times allows the most robust signals to be taken into account. 4.3.1. Induction Factor of 1.7 in Relation to Untreated Control (Table 7)

3H-paroxetine binding = target: T3, 3H-paroxetine binding (Rattus norvegicus, UniProt P31652); assay: Paroxetine binding, rat hypothalamus membranes
T3 construct: the hypothalamus was removed, weighed and homogenised on a Dounce; from tissue
T3 sequence (P31652 whole entry): as the sequence (P31652 whole entry) above
Protocol: 2.1.3. Paroxetine Binding
Male Sprague-Dawley rats (Janvier) weighing 180-200 g were used. The hypothalami of several rats were collected and homogenised in 5 ml of chilled buffer (50 mM Tris-HCL, 120 mM NaCl, 5 mM KCl, pH 7.5) on a Dounce, and the homogenate was centrifuged at 30 000 g (27 000 rpm-Beckman. L5-50E, T40 rotor) for 10 min. The residue obtained was recovered in 5 ml of buffer and re-centrifuged under the same conditions. The new residue was recovered in the same buffer and finally re-homogenised on a Dounce at a tissue concentration of 10 mg/ml. The membrane suspension (100 μl) was incubated with 3H-paroxetine (NEN, France, 28.6 Ci/mmol) at a concentration (final) of 0.1 nM, at 20° C., in a final volume of 1 ml for 2 hr. After 2 hr incubation, the reaction was stopped by vacuum filtration on Whatman GF/F filters pre-treated in a 0.05% solution of polyethylenimine 30 min beforehand (prediluted with 4 ml of chilled buffer, then the tube was rinsed with 2 times 4 ml). Radioactivity was measured by liquid scintillation spectrometry (Packard, Tricarb 4640) using Emulsifier-Safe (Packard) as the scintillating agent.
Specific ^3H-paroxetine binding was defined as the difference between total binding and that remaining in the presence of 10 μM of fluoxetine.
The IC50 were determined by transposing the percentages of inhibition onto a graph in relation to the log of the concentration of the product (6 concentrations in duplicate).

[2] = Pharmacokinetic study in man (12 healthy subjects), racemate or one enantiomer alone; assay type: in vivo; settings: human, plasma; for half-life: read-out: T½ (converted)
Protocol: A pharmacokinetic study in man involving 12 healthy subjects was performed by administering the racemate or one of the two enantiomers alone.

[3] = in vivo
Text: In animals, the pharmacokinetics of each enantiomer were studied following administration of the racemate or of one single enantiomer.

3H-norepinephrine uptake [4] = target: T2, 3H-norepinephrine uptake; settings: read-out: IC50 3H-Norepinephrine uptake; rat hypothalamus P2, 3H-NE 50 nM, 10 min, 37° C.
Protocol: as §1, §2, §3, §4, §5, §6, §7, §8, §9, §10

[5] = enantiomer administered alone (25 mg)
[6] = enantiomer assayed after F2207 (50 mg)

Question: Which results are given for `CCN(CC)C(=O)[C@]1(c2ccccc2)C[C@@H]1CN` [F2696, Z-(1R, 2S)-2-(aminomethyl)-N,N-diethyl-1-phenyl cyclopropane carboxamide]?
Answer: IC50 (3H-serotonin uptake): 600 nM; IC50 (3H-norepinephrine uptake [1]): 750 nM; Clone G09 (H. sapiens mitochondrion, cytochrome b), regulation factor vs untreated control (primary rat hepatocytes; 100 μM): 2.09; Clone I01 (H. sapiens mitochondrion, cytochrome c oxidase subunit 1), regulation factor vs untreated control (primary rat hepatocytes; 100 μM): 2.05; Clone L01 (H. sapiens divalent cation tolerant protein CUTA mRNA), regulation factor vs untreated control (primary rat hepatocytes; 100 μM): 2.05; Clone M07 (H. sapiens mitochondrion, cytochrome c oxidase subunit 1), regulation factor vs untreated control (primary rat hepatocytes; 100 μM): 2.25; Clone M12 (H. sapiens mRNA; cDNA DKFZp564C1563), regulation factor vs untreated control (primary rat hepatocytes; 100 μM): 0.21; Clone W17 (H. sapiens mitochondrion, hypoxia inducible gene-14), regulation factor vs untreated control (primary rat hepatocytes; 100 μM): 2.96; Clone T08 (H. sapiens mRNA for KIAA1185 protein), regulation factor vs untreated control (primary rat hepatocytes; Sprague-Dawley, rat, 1 μM): 0.50; Clone U04 (H. sapiens translation initiation factor elF-2alpha mRNA), regulation factor vs untreated control (primary rat hepatocytes; Sprague-Dawley, rat, 1 μM): 0.57; Number of down-regulated clones (Down) (primary rat hepatocytes; Sprague-Dawley, rat, 1 μM): 2; Clone AC13 (H. sapiens 7S RNA L gene), regulation factor vs untreated control (primary rat hepatocytes; Sprague-Dawley, rat, 10 μM): 0.22; Clone T08 (H. sapiens mRNA for KIAA1185 protein), regulation factor vs untreated control (primary rat hepatocytes; Sprague-Dawley, rat, 10 μM): 0.22; Clone U04 (H. sapiens translation initiation factor elF-2alpha mRNA), regulation factor vs untreated control (primary rat hepatocytes; Sprague-Dawley, rat, 10 μM): 0.26; Clone X02 (unk), regulation factor vs untreated control (primary rat hepatocytes; Sprague-Dawley, rat, 10 μM): 0.29; Number of down-regulated clones (Down) (primary rat hepatocytes; Sprague-Dawley, rat, 10 μM): 5; Clone A20 (H. sapiens initiation factor elF-5A gene), regulation factor vs untreated control (primary rat hepatocytes; Sprague-Dawley, rat, 100 μM): 0.56; Clone AC13 (H. sapiens 7S RNA L gene), regulation factor vs untreated control (primary rat hepatocytes; Sprague-Dawley, rat, 100 μM): 0.16; Clone C01 (H. sapiens mitochondrion, 16S), regulation factor vs untreated control (primary rat hepatocytes; Sprague-Dawley, rat, 100 μM): 3.20; Clone E11 (H. sapiens chlordecone reductase homolog liver, mRNA), regulation factor vs untreated control (primary rat hepatocytes; Sprague-Dawley, rat, 100 μM): 2.12; Clone I18 (H. sapiens 18S rRNA gene), regulation factor vs untreated control (primary rat hepatocytes; Sprague-Dawley, rat, 100 μM): 2.38; Clone J03 (H. sapiens CLP mRNA), regulation factor vs untreated control (primary rat hepatocytes; Sprague-Dawley, rat, 100 μM): 2.12; Clone L22 (H. sapiens mRNA for Lon protease-like protein), regulation factor vs untreated control (primary rat hepatocytes; Sprague-Dawley, rat, 100 μM): 1.78; Clone M23 (Sequence 21 from U.S. Pat. No. 5,851,764), regulation factor vs untreated control (primary rat hepatocytes; Sprague-Dawley, rat, 100 μM): 1.95; Clone P05 (H. sapiens PAC clone DJ404K21 from Xq23), regulation factor vs untreated control (primary rat hepatocytes; Sprague-Dawley, rat, 100 μM): 1.78; Clone Q24 (H. sapiens 28S ribosomal RNA gene), regulation factor vs untreated control (primary rat hepatocytes; Sprague-Dawley, rat, 100 μM): 1.77; Clone T08 (H. sapiens mRNA for KIAA1185 protein), regulation factor vs untreated control (primary rat hepatocytes; Sprague-Dawley, rat, 100 μM): 0.20; Clone U04 (H. sapiens translation initiation factor elF-2alpha mRNA), regulation factor vs untreated control (primary rat hepatocytes; Sprague-Dawley, rat, 100 μM): 0.19; Clone X02 (unk), regulation factor vs untreated control (primary rat hepatocytes; Sprague-Dawley, rat, 100 μM): 0.20; Clone X06 (H. sapiens Genomic sequence from 9q34), regulation factor vs untreated control (primary rat hepatocytes; Sprague-Dawley, rat, 100 μM): 0.16; Clone X23 (unk), regulation factor vs untreated control (primary rat hepatocytes; Sprague-Dawley, rat, 100 μM): 1.92; Clone Y17 (H. sapiens 28S ribosomal RNA gene), regulation factor vs untreated control (primary rat hepatocytes; Sprague-Dawley, rat, 100 μM): 2.65; IC50 (3H-paroxetine binding): 700 nM; AUC(0-inf) [2, 5]: 1.54 µM·h; Cmax [2, 5]: 212 nM; Tmax [2, 5]: 2.21 h; half-life [2, 5]: 5.58 h; AUC(0-inf) [2, 6]: 1.56 µM·h; Cmax [2, 6]: 179 nM; Tmax [2, 6]: 2.87 h; half-life [2, 6]: 5.75 h; Plasma concentrations of the enantiomers compared ([3]; monkey): approximately equivalent; Plasma concentrations of the enantiomers compared ([3]; rat): approximately equivalent

Question: Which results are given for `CCN(CC)C(=O)[C@@]1(c2ccccc2)C[C@H]1CN` [F2695, Z-(1S,2R)-2-(aminomethyl)-N,N-diethyl-1-phenyl cyclopropane carboxamide]?
Answer: IC50 (3H-serotonin uptake): 46 nM; IC50 (3H-norepinephrine uptake [1]): 15 nM; Clone Q11 (unk), regulation factor vs untreated control (primary rat hepatocytes; Sprague-Dawley, rat, 100 μM): 1.81; Number of down-regulated clones (Down) (primary rat hepatocytes; Sprague-Dawley, rat, 100 μM): 1; Number of up-regulated clones (Up) (primary rat hepatocytes; Sprague-Dawley, rat, 100 μM): 1; IC50 (3H-paroxetine binding): 60 nM; AUC(0-inf) [2, 5]: 2.87 µM·h; Cmax [2, 5]: 216 nM; Tmax [2, 5]: 3.08 h; half-life [2, 5]: 9.38 h; AUC(0-inf) [2, 6]: 2.9 µM·h; Cmax [2, 6]: 214 nM; Tmax [2, 6]: 3.42 h; half-life [2, 6]: 9.28 h; Plasma concentrations of the enantiomers compared ([3]; monkey): approximately equivalent; Plasma concentrations of the enantiomers compared ([3]; rat): approximately equivalent

Question: For `CCN(CC)C(=O)C1(c2ccccc2)CC1CN` (racemic) [F2207, Z(±)-2-(aminomethyl)-N,N-diethyl-1-phenyl cyclopropane carboxamide], which IC50 (3H-serotonin uptake) is on record?
Answer: 150 nM

Question: And the IC50 (3H-norepinephrine uptake [4])?
Answer: 30 nM

Question: What about the IC50 (3H-paroxetine binding) of the same compound?
Answer: 130 nM
